Patent US10688099B2, “Methods for modulating the amount of RNA transcripts” (PTC Therapeutics, Inc., priority 2013, dated 2020)

Tested on: RNA isoforms in PNN 1-46 SMA type I patient-derived fibroblasts
Experiment: RNA Abundance Modulation (RNA isoform abundance, iFPM, HiSeq RNA sequencing)
Type: cell-based, human
Details: 3 μM
Procedure: Cells from a cell line of interest are cultured in conditions sufficient to yield the number of cells capable of generating enough RNA for subsequent sequencing steps. Cells from the tested cell line are contacted with a compound described herein.
To culture said cells, they are seeded, at appropriate concentrations in a volume of media in a cell culture container and incubated for 4, 5, 6, 7, 8, 9, 10, or more hours. A concentrated solution of compound in a vehicle (e.g., DMSO) is then added in sufficient volume to result in the intended final concentration of the compound, for example 100 nM, 500 nM, 1 μM, 5 μM, 10 μM, 15 μM, 20 μM, or more. The cells may also be treated with vehicle alone, as a control. A number of replicates of each concentration or control may be made (e.g., 2 replicates). The cells are then incubated at a constant temperature appropriate for cell culture of the particular cell line (e.g., 37° C.) for 6, 12, 18, 24, 48, or more hours. After incubation, the growth medium is removed and the cells are washed with the appropriate buffer (e.g., PBS). Cells are then removed from adherence to the cell culture container by treatment with a solution containing trypsin, and the trypsin subsequently quenched with the appropriate volume of buffer (e.g., DMEM-FBS). The cells are then pelleted with gentle centrifugation (e.g., ≤90×g centrifugal force) and resuspended in a buffer to lyse the cells for extraction of RNA. The cell lysates may then be frozen (e.g., at −80° C.) or, alternately, may immediately be used in a procedure to purify the RNA (e.g. by use of the RNEASY PLUS® minikit). The RNA from cell lysates is eluted in the appropriate volume of buffer (e.g., RNEASE-FREE H2O®). The resulting purified RNA may then be sequenced (e.g., using RNASeq) or analyzed using a human exon array (e.g., by GENECHIP® human exon array) to determine changes in the RNA levels in those cells treated with compound compared to those cells treated only with DMSO. The purified RNA may also be quantified by other methods known in the art.
Using the RNA data obtained from sequencing, exon array, or other methods, a statistical analysis can reveal changes in the RNA levels of compound-treated compared with control. For example, t-test p-values may be calculated for the data obtained through sequencing and exon array methods in order to compare compound-treated cells to those treated with the DMSO control. […] Analysis of the sequencing and exon array data may then also yield predictions about the cause of the aberrant amount of an RNA transcript in the cells (e.g., perturbation of RNA splicing, RNA transcription, or RNA stability). These predictions may be further confirmed by methods known in the art. For example, RT-PCR and RT-qPCR may be used to confirm the change in amount of RNA transcripts for one or more particular transcripts of interest.
Following the methods described above in Example 1, PNN 1-46 SMA type I patient-derived fibroblasts were treated with 300 nM or 3 μM Compounds 774 and 808 in 0.5% DMSO.
700,000 cells were seeded in 10 mL of medium (DMEM plus 10% FBS) in a T-75 flask. Cells were allowed to attach for at least 4 hrs, after which 50 μL of a 200× compound solution (100% DMSO) was added to each well, and the plate was incubated at 37° C. for 24 hrs.
At the end of the incubation period, the supernatant was removed and the cells where washed with PBS. TrypLE (Invitrogen) express solution was added (e.g. 1.5 mL per one T75 flask). The flasks were incubated for 3 to 5 min at 37° C. The trypsin was then quenched, e.g., by adding 10 mL DMEM-FBS.
Next, the cells were pelleted using gentle centrifugation without exceeding 90×g centrifugal force. The supernatant was removed and the cell pellet was re-suspended in 600 μL RLT buffer (the RLT buffer was supplemented with beta-mercaptoethanol according to the RNeasy protocol manual) by pipetting up and down until the pellet was completely dissolved […]

With `CCc1nc(C)cn2nc(-c3cc(=O)n4cc(C5CCN(C)CC5)cc(C)c4n3)cc12` [Compound 774] the “amp FC (x + 1)” value (U2SURP BC006474) was 1.09, the “ave Cpd” value (U2SURP BC006474) was 1249 iFPM and the “FC (x + 1)” value (U2SURP BC111692) was 1.9191. The “L2FC (x + 1)” value (U2SURP BC111692) was 0.940, the “L2abs (Cpd-DMSO)” value (U2SURP BC111692) was 3.18 and the “abs (Cpd-DMSO)” value (U2SURP BC111692) was 9 iFPM. For the same compound, the “amp FC (x + 1)” value (U2SURP BC111692) was 1.92, the “ave Cpd” value (U2SURP BC111692) was 18 iFPM and the “FC (x + 1)” value (U2SURP NM_001080415) was 2.2780. For the same compound, the “L2FC (x + 1)” value (U2SURP NM_001080415) was 1.188, the “L2abs (Cpd-DMSO)” value (U2SURP NM_001080415) was 7.79 and the “abs (Cpd-DMSO)” value (U2SURP NM_001080415) was 222 iFPM. For the same compound, the “amp FC (x + 1)” value (U2SURP NM_001080415) was 2.28, the “ave Cpd” value (U2SURP NM_001080415) was 395 iFPM and the “FC (x + 1)” value (UBAP2L AJ243668) was 0.4506. The “L2FC (x + 1)” value (UBAP2L AJ243668) was −1.150, the “L2abs (Cpd-DMSO)” value (UBAP2L AJ243668) was 6.40 and the “abs (Cpd-DMSO)” value (UBAP2L AJ243668) was 84 iFPM. The “amp FC (x + 1)” value (UBAP2L AJ243668) was 2.22, the “ave Cpd” value (UBAP2L AJ243668) was 68 iFPM and the “FC (x + 1)” value (UBAP2L AJ243669) was 0.2687. For the same compound, the “L2FC (x + 1)” value (UBAP2L AJ243669) was −1.896, the “L2abs (Cpd-DMSO)” value (UBAP2L AJ243669) was 6.45 and the “abs (Cpd-DMSO)” value (UBAP2L AJ243669) was 88 iFPM. For the same compound, the “amp FC (x + 1)” value (UBAP2L AJ243669) was 3.72, the “ave Cpd” value (UBAP2L AJ243669) was 31 iFPM and the “FC (x + 1)” value (UBAP2L AJ243670) was 3.1873. The “L2FC (x + 1)” value (UBAP2L AJ243670) was 1.672, the “L2abs (Cpd-DMSO)” value (UBAP2L AJ243670) was 1.13 and the “abs (Cpd-DMSO)” value (UBAP2L AJ243670) was 2 iFPM. For the same compound, the “amp FC (x + 1)” value (UBAP2L AJ243670) was 3.19, the “ave Cpd” value (UBAP2L AJ243670) was 2 iFPM and the “FC (x + 1)” value (UBAP2L AK124294) was 0.4670. For the same compound, the “L2FC (x + 1)” value (UBAP2L AK124294) was −1.099, the “L2abs (Cpd-DMSO)” value (UBAP2L AK124294) was 5.20 and the “abs (Cpd-DMSO)” value (UBAP2L AK124294) was 37 iFPM. For the same compound, the “amp FC (x + 1)” value (UBAP2L AK124294) was 2.14, the “ave Cpd” value (UBAP2L AK124294) was 31 iFPM and the “FC (x + 1)” value (UBAP2L AK302662) was 0.2827. The “L2FC (x + 1)” value (UBAP2L AK302662) was −1.822, the “L2abs (Cpd-DMSO)” value (UBAP2L AK302662) was 8.14 and the “abs (Cpd-DMSO)” value (UBAP2L AK302662) was 283 iFPM. For the same compound, the “amp FC (x + 1)” value (UBAP2L AK302662) was 3.54, the “ave Cpd” value (UBAP2L AK302662) was 110 iFPM and the “FC (x + 1)” value (UBAP2L AK302953) was 0.5118. The “L2FC (x + 1)” value (UBAP2L AK302953) was −0.966, the “L2abs (Cpd-DMSO)” value (UBAP2L AK302953) was 8.57 and the “abs (Cpd-DMSO)” value (UBAP2L AK302953) was 381 iFPM. For the same compound, the “amp FC (x + 1)” value (UBAP2L AK302953) was 1.95, the “ave Cpd” value (UBAP2L AK302953) was 399 iFPM and the “FC (x + 1)” value (UBAP2L AK303533) was 0.0476. For the same compound, the “L2FC (x + 1)” value (UBAP2L AK303533) was −4.392, the “L2abs (Cpd-DMSO)” value (UBAP2L AK303533) was 4.32 and the “abs (Cpd-DMSO)” value (UBAP2L AK303533) was 20 iFPM. The “amp FC (x + 1)” value (UBAP2L AK303533) was 20.99, the “ave Cpd” value (UBAP2L AK303533) was 0 iFPM and the “FC (x + 1)” value (UBAP2L NM_014847) was 0.3090. The “L2FC (x + 1)” value (UBAP2L NM_014847) was −1.695, the “L2abs (Cpd-DMSO)” value (UBAP2L NM_014847) was 10.25 and the “abs (Cpd-DMSO)” value (UBAP2L NM_014847) was 1219 iFPM. The “amp FC (x + 1)” value (UBAP2L NM_014847) was 3.24, the “ave Cpd” value (UBAP2L NM_014847) was 544 iFPM and the “FC (x + 1)” value (UBAP2L NM_001127320) was 0.4857. The “L2FC (x + 1)” value (UBAP2L NM_001127320) was −1.042, the “L2abs (Cpd-DMSO)” value (UBAP2L NM_001127320) was 10.01 and the “abs (Cpd-DMSO)” value (UBAP2L NM_001127320) was 1030 iFPM. For the same compound, the “amp FC (x + 1)” value (UBAP2L NM_001127320) was 2.06, the “ave Cpd” value (UBAP2L NM_001127320) was 972 iFPM and the “FC (x + 1)” value (UBE2V1 NM_021988) was 0.9186. The “L2FC (x + 1)” value (UBE2V1 NM_021988) was −0.122, the “L2abs (Cpd-DMSO)” value (UBE2V1 NM_021988) was 2.64 and the “abs (Cpd-DMSO)” value (UBE2V1 NM_021988) was 6 iFPM. The “amp FC (x + 1)” value (UBE2V1 NM_021988) was 1.09, the “ave Cpd” value (UBE2V1 NM_021988) was 69 iFPM and the “FC (x + 1)” value (UBE2V1 NM_022442) was 0.2858.
